{"source": "paper PMC11073428", "about": "“The activity of pyrazolo[4,3-e][1,2,4]triazine and pyrazolo[4,3-e]tetrazolo[1,5-b][1,2,4]triazine sulphonamide derivatives in monolayer and spheroid breast cancer cell cultures” (Journal of Enzyme Inhibition and Medicinal Chemistry, 2024)", "key": {"[1]": {"system": "MCF-7 breast cancer cells", "test": "Apoptosis, annexin V-FITC/PI flow cytometry, MCF-7", "assay_type": "cell-based, human", "conditions": "24 h", "protocol": "The analysis was performed using flow cytometry Apoptosis Detection Kit II (BD Biosciences, San Diego, CA) as described previously."}, "[2]": {"system": "NF-κB in MDA-MB-231 cells", "test": "Anti-NF-κB antibody flow cytometry, MDA-MB-231", "assay_type": "cell-based, human", "conditions": "24 h", "protocol": "(§1) To evaluate the molecular mechanism of induction of apoptosis of tested compounds, the level of p53, NF-κB, mTOR, Bax, and beclin-1 was measured using appropriate antibody according to the manufacturer’s instruction. In brief, tryspinised cells were centrifuged, then supernatant was discarded, and cells were suspended in 4% FA (formaldehyde). Prepared samples were incubated 15 min at RT. Following incubation, the 2.5 mL PBS was added to each sample and centrifuged. Then, supernatant was discarded, and cells were resuspended in 90% ice-cold methanol to perform permeabilisation and left for 1 h in ice. To remove methanol, cells were rinsed with excess PBS by centrifugation. Following centrifugation, the supernatant was discarded. Then, cells were resuspended in 100 µL of appropriate diluted (1:100 in PBS) antibody conjugate (p53 (7F5) Rabbit mAb – Alexa Fluor 488 Conjugate #5429 Cell Signalling Technology, Danvers, MA; NF-κB p65 (D14E12) XP Rabbit mAb – Alexa Fluor 647 Conjugate #8801 Cell Signalling Technology, Danvers, MA; mTOR (7C10) Rabbit mAB – Alexa Fluor 647 #5048 Cell Signalling Technology, Danvers, MA; FITC Anti-Bax antibody (T22-A) #ab139543, Abcam, Cambridge, UK) and incubated 1 h in the dark at RT. Afterwards, cells were washed by centrifugation in 2 mL of incubation buffer. Finally, supernatant was removed and 300 µL PBS was added to each sample and pipetted. […]"}, "Bax in MCF-7 cells": {"system": "Bax in MCF-7 cells", "test": "Anti-Bax antibody flow cytometry, MCF-7", "assay_type": "cell-based, human", "conditions": "24 h", "protocol": "To evaluate the molecular mechanism of induction of apoptosis of tested compounds, the level of p53, NF-κB, mTOR, Bax, and beclin-1 was measured using appropriate antibody according to the manufacturer’s instruction. In brief, tryspinised cells were centrifuged, then supernatant was discarded, and cells were suspended in 4% FA (formaldehyde). Prepared samples were incubated 15 min at RT. Following incubation, the 2.5 mL PBS was added to each sample and centrifuged. Then, supernatant was discarded, and cells were resuspended in 90% ice-cold methanol to perform permeabilisation and left for 1 h in ice. To remove methanol, cells were rinsed with excess PBS by centrifugation. Following centrifugation, the supernatant was discarded. Then, cells were resuspended in 100 µL of appropriate diluted (1:100 in PBS) antibody conjugate (p53 (7F5) Rabbit mAb – Alexa Fluor 488 Conjugate #5429 Cell Signalling Technology, Danvers, MA; NF-κB p65 (D14E12) XP Rabbit mAb – Alexa Fluor 647 Conjugate #8801 Cell Signalling Technology, Danvers, MA; mTOR (7C10) Rabbit mAB – Alexa Fluor 647 #5048 Cell Signalling Technology, Danvers, MA; FITC Anti-Bax antibody (T22-A) #ab139543, Abcam, Cambridge, UK) and incubated 1 h in the dark at RT. Afterwards, cells were washed by centrifugation in 2 mL of incubation buffer. Finally, supernatant was removed and 300 µL PBS was added to each sample and pipetted. The analysis was performed by flow cytometry (BD FACSCanto II, Becton Dickinson Biosciences Systems, San Jose, CA) using FACSDiva software ver. 6.1.3."}, "p53 in MCF-7 cells": {"system": "p53 in MCF-7 cells", "test": "Anti-p53 antibody flow cytometry, MCF-7", "assay_type": "cell-based, human", "conditions": "MCF-7, 0.25 µM and 0.5 µM, 24 h", "protocol": "as §1"}, "p53 in MDA-MB-231 cells": {"system": "p53 in MDA-MB-231 cells", "test": "Anti-p53 antibody flow cytometry, MDA-MB-231", "assay_type": "cell-based, human", "conditions": "MDA-MB-231, 0.25 µM and 0.5 µM, 24 h", "protocol": "as §1"}, "caspase 9 in MCF-7 cells": {"system": "caspase 9 in MCF-7 cells", "test": "Activity of caspase 9, MCF-7", "assay_type": "cell-based, human", "conditions": "MCF-7, 0.5 µM, 24 h", "protocol": "(§2) MCF-7 and MDA-MB-231 cells were plated in six-well plates at density 1 × 10^6 and cultured in DMEM for 24 h. […] Then to identify the involvement of caspase family in inducing apoptosis, cells were pre-treated with Z-VAD-FMK (100 µM) 2 h before adding compounds[28]. The activation of caspases 9, 10, and 3/7 was detected as described before."}, "[3]": {"system": "caspase 9 in MDA-MB-231 cells", "test": "Activity of caspase 9, MDA-MB-231", "assay_type": "cell-based, human", "conditions": "MDA-MB-231, 0.5 µM, 24 h", "protocol": "as §2"}, "[4]": {"system": "caspase 3/7 in MDA-MB-231 cells", "test": "Activity of caspase 3/7, MDA-MB-231", "assay_type": "cell-based, human", "conditions": "24 h", "protocol": "as §2"}, "[5]": {"system": "MCF-7 breast cancer cells", "test": "Autophagy Assay, Red, flow cytometry, MCF-7", "assay_type": "cell-based, human", "protocol": "(§3) The effect of novel compound 3b at 0.25 µM and 0.5 µM concentration on the induction of autophagy in MCF-7 and MDA-MB-231 pre-treated 1 h with or not autophagy inhibitor 3-MA for 1 h (3-methyladenine, Sigma-Aldrich, St. Louis, MO) at 1 mM concentration[29] was assessed by ICT’s Autophagy Assay, Red using a flow cytometer. The test was performed as previously. Briefly, cells were washed with PBS and suspended in 490 µL of PBS. To each probe, 10 µL of diluted Autophagy Probe, Red solution was added. Prepared samples were incubated at 37 °C for 60 min. Following incubation, cells were suspended in diluted cellular assay buffer and centrifuged. Then, supernatant was removed, and cells were resuspended in diluted cellular assay buffer and centrifuged again. This step was repeated three times. Finally, cell pellet was resuspended in 0.5 mL of diluted cellular assay buffer. The analysis was performed with a flow cytometer (excitation/emission 590 nm/620 nm)."}, "[6]": {"system": "MDA-MB-231 breast cancer cells", "test": "Autophagy Assay, Red, flow cytometry, MDA-MB-231", "assay_type": "cell-based, human", "protocol": "as §3"}, "mTOR in MCF-7 cells": {"system": "mTOR in MCF-7 cells", "test": "Anti-mTOR antibody flow cytometry, MCF-7", "assay_type": "cell-based, human", "conditions": "MCF-7, 0.25 µM and 0.5 µM, 24 h", "protocol": "as §1"}, "mTOR in MDA-MB-231 cells": {"system": "mTOR in MDA-MB-231 cells", "test": "Anti-mTOR antibody flow cytometry, MDA-MB-231", "assay_type": "cell-based, human", "conditions": "MDA-MB-231, 0.25 µM and 0.5 µM, 24 h", "protocol": "as §1"}, "[7]": {"system": "beclin-1 in MDA-MB-231 cells", "test": "Anti-beclin-1 antibody flow cytometry, MDA-MB-231", "assay_type": "cell-based, human", "conditions": "MDA-MB-231, 0.5 µM, 24 h", "protocol": "The fixation and permeabilisation were performed as described above. Cells were resuspended in 100 µL of diluted primary antibody (1:100 in PBS, anti-beclin 1 antibody (2A4) #ab114071, Abcam, Cambridge, UK) and incubated 30 min in the dark at RT. The cells were washed three times by centrifugation in PBS. Then to each probe, 100 µL of diluted fluorochrome-labelled secondary antibody (1:100 in PBS; goat anti-mouse IgG H&L – Alexa Fluor 488 #ab150113, Abcam, Cambridge, UK) was added and incubated 30 min in dark at RT. Then, cells were rinsed with 2.5 mL PBS. In the last step, supernatant was discarded and cells were resuspended in 300 µL PBS and pipetted. The analysis was carried out by flow cytometry."}, "[8]": {"system": "MCF-7 breast cancer cells", "test": "MTT viability assay, MCF-7", "experimental": "(§4) Following 24-h incubation with tested compounds, the medium was discarded from the cell cultures. Then, into each well with cells was added 1 mL of PBS and 50 µL of MTT solution (5 mg per mL). Cells were incubated at 37 °C and 5% CO2 in humidified atmosphere for a defined time appropriate for each cell line. After incubation, the solution above the cells was removed and obtained purple formazan crystals were dissolved in 1 mL DMSO. The absorbance was read at OD = 570 nm on Evolution 201 Spectrophotometer (Thermo Scientific, Waltham, MA)."}, "[9]": {"system": "MDA-MB-231 breast cancer cells", "test": "MTT viability assay, MDA-MB-231", "experimental": "as §4"}, "[10]": {"conditions": "ratio of cytotoxicity, 3a vs 2a, 3b vs 2b"}}, "data": [{"compound": "Cc1nn(-c2ccc(S(=O)(=O)N[C@@H](CO)Cc3ccccc3)cc2)c2nn3nnnc3nc12", "note": "[Compound 3b, (R)-N-(1-hydroxy-3-phenylpropan-2-yl)-4-(7-methyl-5H-pyrazolo[4,3-e]tetrazolo[1,5-b][1,2,4]triazin-6-yl)benzenesulfonamide]", "values": [{"measurement": "apoptotic cells", "setting": "[1]; MCF-7, 0.25 µM", "result": "50.6 ± 3.5", "unit": "%"}, {"measurement": "early and late apoptotic cells", "setting": "[1]; MCF-7, 0.5 µM", "result": "98.9 ± 1.6", "unit": "%"}, {"measurement": "cells with active NF-κB", "setting": "[2]; MDA-MB-231, 0.25 µM", "result": "94.8 ± 0.6", "unit": "%"}, {"measurement": "cells with active NF-κB", "setting": "[2]; MDA-MB-231, 0.5 µM", "result": "89.6 ± 4.1", "unit": "%"}, {"measurement": "cells with active Bax", "setting": "Bax in MCF-7 cells; MCF-7, 0.25 µM", "result": "46.4 ± 6.6", "unit": "%"}, {"measurement": "cells with active Bax", "setting": "Bax in MCF-7 cells; MCF-7, higher concentration (0.5 µM)", "result": "63.0 ± 1.6", "unit": "%"}, {"measurement": "effect on p53 (in words)", "setting": "p53 in MCF-7 cells", "result": "activates p53"}, {"measurement": "effect on p53 (in words)", "setting": "p53 in MDA-MB-231 cells", "result": "activates p53"}, {"measurement": "percentage of active form of caspase 9", "setting": "caspase 9 in MCF-7 cells", "result": "72.1 ± 2.3", "unit": "%"}, {"measurement": "cells with active caspase 9", "setting": "[3]", "result": "55.9 ± 1.2", "unit": "%"}, {"measurement": "cells with active executive caspases (3 and 7)", "setting": "[4]; MDA-MB-231, 0.25 µM", "result": "23.8 ± 0.8", "unit": "%"}, {"measurement": "cells with active executive caspases (3 and 7)", "setting": "[4]; MDA-MB-231, 0.5 µM", "result": "68.4 ± 1.2", "unit": "%"}, {"measurement": "autophagic cells", "setting": "[5]; MCF-7, 0.5 µM, 24 h", "result": "30 ± 2.1", "unit": "%"}, {"measurement": "autophagic cells with 3-MA relative to 3b alone (in words)", "setting": "[5]; MCF-7, 3b 0.5 µM + 3MA vs 3b 0.5 µM", "result": "one and a half times less autophagic cells"}, {"measurement": "autophagic cells (rate of autophagosomes)", "setting": "[6]; MDA-MB-231, 0.5 µM, 24 h", "result": "47.1 ± 0.6", "unit": "%"}, {"measurement": "autophagic cells in presence of 3-MA", "setting": "[6]; MDA-MB-231, 3b 0.5 µM + 3-MA (1 mM, 1 h pre-treatment)", "result": "25.9 ± 4.7", "unit": "%"}, {"measurement": "effect on cells with active mTOR (in words)", "setting": "mTOR in MCF-7 cells", "result": "decrease in the number of cells with active mTOR"}, {"measurement": "effect on cells with active mTOR (in words)", "setting": "mTOR in MDA-MB-231 cells", "result": "decrease in the number of cells with active mTOR"}, {"measurement": "cells with active beclin-1", "setting": "[7]", "result": "8.1 ± 0.1", "unit": "%"}, {"measurement": "melting point", "result": "170 to 172", "unit": "°C"}, {"measurement": "IC50", "setting": "[8]; Homo sapiens, MCF7, 24 h, read-out: Cytotoxicity IC50 MCF-7", "result": "250 ± 70", "unit": "nM"}, {"measurement": "times stronger than the corresponding sulphonyl derivative (2a or 2b), MCF-7", "setting": "[8]; [10]", "result": 22, "unit": "times"}, {"measurement": "IC50", "setting": "[9]; Homo sapiens, MDA-MB-231, 24 h, read-out: Cytotoxicity IC50 MDA-MB-231", "result": "310 ± 140", "unit": "nM"}, {"measurement": "times stronger than the corresponding sulphonyl derivative (2a or 2b), MDA-MB-231", "setting": "[9]; [10]", "result": 25, "unit": "times"}]}]}
